Source: patent publication US10201532B2, “Compounds and their use” (ALLECRA THERAPEUTICS GMBH, priority 2010, dated 2019)

Experiments:
[1] = test system: K. pneumoniae ATCC 700603 (SHV18); assay: Disk zone of inhibition, antibiotic + Compound-1 on same disk (Methodology 2); type: cell-based, Klebsiella pneumoniae
Description: (§1) In this experiment, Compound-1 is used as a diagnostic reagent for the detection of β-lactamases belonging to the families KPC & ESBL (e.g., SHV18) producing Enterobacteriaceae. A simple set of absorbent paper disks impregnated with antibiotic on agar medium is used for the detection.
(§2) • 0.5 McFarland of the test organism was inoculated at 1:10 dilution on Muller • Hinton Agar plates • Test organisms: Klebsiella pneumoniae (K.p) ATCC BAA-1705, Klebsiella pneumoniae ATCC 700603, Escherichia coli (E.c) Ecoli233 • Carbapenem (e.g., Imipenem [IPM] 10 μg) and cephalosporin (e.g., Ceftazidime [CAZ] 30 μg) paper disks (7 mm) were placed on the inoculated agar plates • Compound-1 (60 μg) disk was placed at a distance of 7 & 10 mm from the carbapenem and cephalosporin disks. • The presence of expressed carbapenemases or ESBLs was measured as the expansion of Imipenem or Ceftazidime's inhibition zones due to synergy in the presence of Compound-1. Results:
(§3) The methodology remains the same as Methodology 1 except the following change • Compound-1 (60 μg) was added on the same disk in combination with a carbapenem (e.g., Imipenem 10 μg) or cephalosporin (e.g., Ceftazidime 30 μg) and placed on the inoculated agar plate. • The presence of the expressed carbapenemases or ESBLs was measured as an increase in Imipenem or Ceftazidime's zone diameter in combination with Compound-1 compared to antibiotic alone. Results

[2] = test system: E. coli ATCC 25922 (β-lac-ve); assay: as above; type: cell-based, Escherichia coli
E. coli Ecoli233 (KPC3) = assay: as above; type: cell-based, Escherichia coli
Description: as §1
as §2, with “Compound-1.” for “Compound-1. Results:”
as §3

[3] = test system: KPC/ESBL producing Enterobacteriaceae; assay: Double Disk Synergy Test (Methodology 1); type: cell-based, Klebsiella pneumoniae, Escherichia coli; conditions: Compound-1 60 μg disk at 7 & 10 mm from antibiotic disks; FIG. 1
Description: as §1
as §2, with “Compound-1.” for “Compound-1. Results:”

[4] = test system: K. pneumoniae 700603 (SHV-18); assay: MIC of Piperacillin with inhibitor, ESBL isolates; type: cell-based, Klebsiella pneumoniae
E. coli BAA-198 (TEM-26) = assay: MIC of Piperacillin with inhibitor, ESBL isolates; type: cell-based, Escherichia coli
[5] = Ceftazidime 30 μg + Compound-1 60 μg on same disk
[6] = Imipenem 10 μg + Compound-1 60 μg on same disk

SMILES | ZOI of CAZ + Compound-1 [1, 5] | ZOI of IPM + Compound-1 [1, 6] | ZOI of CAZ + Compound-1 ([2]; Ceftazidime 30 μg + Compound-1 60 μg on same disk, ATCC 25922) | ZOI of IPM + Compound-1 ([2]; Imipenem 10 μg + Compound-1 60 μg on same disk, ATCC 25922) | Zone of inhibition of compound-1 alone ([2]; β-lactamase negative strain, FIG. 1 (D)) | ZOI of CAZ + Compound-1 (E. coli Ecoli233 (KPC3); [5]) | ZOI of IPM + Compound-1 (E. coli Ecoli233 (KPC3); [6]) | Synergy: increase of Imipenem or Ceftazidime zone adjacent to Compound-1 disk [3] | MIC of Piperacillin with inhibitor ([4]; inhibitor at 1 μg/mL) | MIC of Piperacillin with inhibitor ([4]; inhibitor at 2 μg/mL) | MIC of Piperacillin with inhibitor ([4]; inhibitor at 4 μg/mL) | MIC of Piperacillin with inhibitor (E. coli BAA-198 (TEM-26); inhibitor at 1 μg/mL) | MIC of Piperacillin with inhibitor (E. coli BAA-198 (TEM-26); inhibitor at 2 μg/mL) | MIC of Piperacillin with inhibitor (E. coli BAA-198 (TEM-26); inhibitor at 4 μg/mL)
C[n+]1ccn(C[C@@]2(C)[C@H](C(=O)[O-])N3C(=O)C[C@H]3S2(=O)=O)n1 [Compound-1, 1-{[(2S,3S,5R)-2-Carboxy-3-methyl-4,4,7-trioxo-4-thia-1-azabicyclo[3.2.0]hept-3-yl]methyl}-3-methyl-1H-1,2,3-triazol-3-ium] | 23 mm | 25 mm | 25 mm | 26.5 mm | does not show any zone of inhibition | 22.5 mm | 20 mm | Synergy was observed |  |  |  |  |  | 
C[C@]1(Cn2ccnn2)[C@H](C(=O)O)N2C(=O)C[C@H]2S1(=O)=O [Tazobactam] |  |  |  |  |  |  |  |  | 16 µg/mL | 16 µg/mL | 16 µg/mL | 4 µg/mL | 4 µg/mL | 4 µg/mL
